{"source": "patent US20200045967A1", "about": "“NOVEL TRIAZOLE DERIVATIVES” (Bayer CropScience Aktiengesellschaft, priority 2017, published 2020)", "key": {"Septoria tritici [1]": {"system": "Septoria tritici", "assay": "Example G5: in vivo preventive Septoria tritici test (wheat)", "conditions": "rate of application 500 ppm, evaluated 21 days after inoculation", "protocol": "Solvent: 49 parts by weight of N,N-dimethylacetamide Emulsifier: 1 part by weight of alkylaryl polyglycol ether To produce a suitable preparation of active compound, 1 part by weight of active compound is mixed with the stated amounts of solvent and emulsifier, and the concentrate is diluted with water to the desired concentration. To test for preventive activity, young plants are sprayed with the preparation of active compound or active compound combination at the stated rate of application. After the spray coating has been dried, the plants are sprayed with a spore suspension of Septoria tritici."}, "Pyricularia oryzae": {"system": "Pyricularia oryzae", "format": "cell-based", "conditions": "liquid culture, spore suspension, 4 to 7 days incubation, spectrometric measurement of mycelium growth"}, "Puccinia recondita": {"system": "Puccinia recondita", "assay": "Example G2: in vivo preventive test on Puccinia recondita (brown rust on wheat), comparison", "conditions": "evaluated 11 days after inoculation", "protocol": "(§1) Young plants of wheat were treated by spraying the active ingredient prepared as described above. Control plants were treated only with an aqueous solution of acetone/dimethyl sulfoxide/Tween®. After 24 hours, the plants were contaminated by spraying the leaves with an aqueous suspension of Puccinia recondita spores."}, "Fusarium culmorum": {"system": "Fusarium culmorum", "assay": "Example G3: in vitro test for the calculation of the ED50-value with microorganisms, Fusarium culmorum", "format": "cell-based", "conditions": "liquid culture, spore suspension, 4 to 7 days incubation, spectrometric measurement of mycelium growth", "protocol": "• Solvent: DMSO • Culture medium: 14.6 g anhydrous D-glucose (VWR), 7.1 g mycological peptone (Oxoid), 1.4 g granulated yeast extract (Merck), supplemented with water to a total volume of 1 liter • Inoculum: spore suspension\nFungicides were solubilized in DMSO and the solution used to prepare the required range of concentrations. The final concentration of DMSO used in the assay was <1% by weight.\nA spore suspension was prepared and diluted to the desired spore density.\nFungicides were evaluated for their ability to inhibit spore germination and mycelium growth in liquid culture assay. The compounds were added in the desired concentration to the culture medium with spores. After 4 to 7 days incubation, fungi-toxicity of compounds was determined by spectrometric measurement of mycelium growth. Inhibition of fungal growth was determined by comparing the absorbance values in wells containing the fungicides with the absorbance in control wells without fungicides."}, "Botrytis cinerea": {"system": "Botrytis cinerea", "assay": "Example G1: in vivo preventive test on Botrytis cinerea (grey mould), comparison", "conditions": "rate of application 500 ppm; gherkin; evaluated 4 to 5 days after inoculation", "protocol": "as §1, with “gherkin” for “wheat”, “Botrytis cinerea” for “Puccinia recondita”"}, "Sphaerotheca fuliginea": {"system": "Sphaerotheca fuliginea", "assay": "Example G4: in vivo preventive Sphaerotheca test (cucumbers)", "conditions": "evaluated 7 days after inoculation", "protocol": "Solvent: 24.5 parts by weight of acetone • 24.5 parts by weight of dimethylacetamide Emulsifier: 1 part by weight of alkylaryl polyglycol ether To produce a suitable preparation of active compound, 1 part by weight of active compound is mixed with the stated amounts of solvent and emulsifier, and the concentrate is diluted with water to the desired concentration. To test for preventive activity, young plants are sprayed with the preparation of active compound at the stated rate of application. After the spray coating has dried on, the plants are inoculated with an aqueous spore suspension of Sphaerotheca fuliginea."}, "Septoria tritici [2]": {"system": "Septoria tritici", "assay": "Example G6: in vivo curative Septoria tritici test (wheat)", "conditions": "sprayed 48 hours after the incubation, rate of application 500 ppm, evaluated 21 days after inoculation"}, "[3]": {"system": "Colletotrichum lindemuthianum", "assay": "Example G3: in vitro test for the calculation of the ED50-value with microorganisms, Colletotrichum lindemuthianum", "format": "cell-based", "conditions": "liquid culture, spore suspension, 4 to 7 days incubation, spectrometric measurement of mycelium growth"}, "Septoria tritici [4]": {"system": "Septoria tritici", "assay": "Example G7: in vivo 5 days preventive Septoria tritici test (wheat)", "conditions": "inoculated 5 days after spraying, rate of application 500 ppm, evaluated 21 days after inoculation", "protocol": "Solvent: 49 parts by weight of N,N-dimethylacetamide Emulsifier: 1 part by weight of alkylaryl polyglycol ether To produce a suitable preparation of active compound, 1 part by weight of active compound is mixed with the stated amounts of solvent and emulsifier, and the concentrate is diluted with water to the desired concentration. To test for preventive and long-lasting activity, young plants are sprayed with a preparation of active compound or active compound combination at the stated rate of application."}, "[5]": {"assay": "Log P by HPLC on reversed phase columns (EEC directive 79/831 Annex V.A8)", "format": "physicochemical", "conditions": "method [a]: LC-UV, acidic range, 0.1% formic acid in water and acetonitrile", "protocol": "If more than one Log P value is available within the same method, all the values are given and separated by “+”. Calibration was done with straight-chain alkan2-ones (with 3 to 16 carbon atoms) with known Log P values (measurement of Log P values using retention times with linear interpolation between successive alkanones). Lambda-max-values were determined using UV-spectra from 200 nm to 400 nm and the peak values of the chromatographic signals."}}}
{"smiles": "CSc1ccc(Oc2ccc(C(C)(O)Cn3cncn3)c(C(F)(F)F)c2)cc1", "note": "(stereo not shown) [Comparative compound, reference compound]", "values": [{"measurement": "Efficacy in %", "setting": "Septoria tritici [1]", "value": 22, "unit": "%"}, {"measurement": "Pyricularia oryzae ED50 value in ppm", "setting": "Pyricularia oryzae", "value": 5.6, "unit": "ppm"}, {"measurement": "Efficacy in %", "setting": "Puccinia recondita; rate of application 100 ppm", "value": 25, "unit": "%"}, {"measurement": "Efficacy in %", "setting": "Puccinia recondita; rate of application 500 ppm", "value": 88, "unit": "%"}, {"measurement": "Fusarium culmorum ED50 value in ppm", "setting": "Fusarium culmorum", "value": 2.6, "unit": "ppm"}, {"measurement": "Efficacy in %", "setting": "Botrytis cinerea", "value": 69, "unit": "%"}, {"measurement": "Efficacy in %", "setting": "Sphaerotheca fuliginea; rate of application 10 ppm", "value": 28, "unit": "%"}, {"measurement": "Efficacy in %", "setting": "Sphaerotheca fuliginea; rate of application 100 ppm", "value": 100, "unit": "%"}, {"measurement": "Efficacy in %", "setting": "Septoria tritici [2]", "value": 57, "unit": "%"}, {"measurement": "Colletotrichum lindemuthianum ED50 value in ppm", "setting": "[3]", "value": 0.83, "unit": "ppm"}, {"measurement": "Efficacy in %", "setting": "Septoria tritici [4]", "value": 29, "unit": "%"}]}
{"smiles": "O=Cc1ccc(Oc2ccc(C(O)Cn3cncn3)c(C(F)(F)F)n2)cc1", "note": "(stereo not shown) [Compound I-01, 4-[[5-[1-hydroxy-2-(1,2,4-triazol-1-yl)ethyl]-6-(trifluoromethyl)-2-pyridyl]oxy]benzaldehyde]", "values": [{"measurement": "chromatographic logP", "setting": "[5]; compounds of formula (I)", "value": 1.91}]}
{"smiles": "CSc1ccc(Oc2ccc(C(O)Cn3cncn3)c(C(F)(F)F)n2)cc1", "note": "(stereo not shown) [Compound I-02, 1-[6-(4-methylsulfanylphenoxy)-2-(trifluoromethyl)-3-pyridyl]-2-(1,2,4-triazol-1-yl)ethanol]", "values": [{"measurement": "chromatographic logP", "setting": "[5]; compounds of formula (I)", "value": 2.59}]}
{"smiles": "CSc1ccc(Oc2ccc(C(C)(O)Cn3cncn3)c(C(F)(F)F)n2)cc1", "note": "(stereo not shown) [Compound I-03, 2-[6-(4-methylsulfanylphenoxy)-2-(trifluoromethyl)-3-pyridyl]-1-(1,2,4-triazol-1-yl)propan-2-ol]", "values": [{"measurement": "Efficacy in %", "setting": "Septoria tritici [1]", "value": 78, "unit": "%"}, {"measurement": "Pyricularia oryzae ED50 value in ppm", "setting": "Pyricularia oryzae", "value": 1.7, "unit": "ppm"}, {"measurement": "Efficacy in %", "setting": "Puccinia recondita; rate of application 100 ppm", "value": 65, "unit": "%"}, {"measurement": "Efficacy in %", "setting": "Puccinia recondita; rate of application 500 ppm", "value": 88, "unit": "%"}, {"measurement": "Fusarium culmorum ED50 value in ppm", "setting": "Fusarium culmorum", "value": 0.83, "unit": "ppm"}, {"measurement": "chromatographic logP", "setting": "[5]; compounds of formula (I)", "value": 2.74}, {"measurement": "Efficacy in %", "setting": "Botrytis cinerea", "value": 90, "unit": "%"}, {"measurement": "Efficacy in %", "setting": "Sphaerotheca fuliginea; rate of application 10 ppm", "value": 78, "unit": "%"}, {"measurement": "Efficacy in %", "setting": "Sphaerotheca fuliginea; rate of application 100 ppm", "value": 100, "unit": "%"}, {"measurement": "Efficacy in %", "setting": "Septoria tritici [2]", "value": 93, "unit": "%"}, {"measurement": "Colletotrichum lindemuthianum ED50 value in ppm", "setting": "[3]", "value": 0.38, "unit": "ppm"}, {"measurement": "Efficacy in %", "setting": "Septoria tritici [4]", "value": 71, "unit": "%"}]}
{"smiles": "ON=Cc1ccc(Oc2ccc(C(O)Cn3cncn3)c(C(F)(F)F)n2)cc1", "note": "(stereo not shown) [Compound I-04, 4-[[5-[1-hydroxy-2-(1,2,4-triazol-1-yl)ethyl]-6-(trifluoromethyl)-2-pyridyl]oxy]benzaldehyde Oxime]", "values": [{"measurement": "chromatographic logP", "setting": "[5]; compounds of formula (I)", "value": 2.26}]}
{"smiles": "CC(=O)c1ccc(Oc2ccc(C3OCCO3)cc2)nc1C(F)(F)F", "note": "[Compound V-01, 1-[6-[4-(1,3-dioxolan-2-yl)phenoxy]-2-(trifluoromethyl)-3-pyridyl]ethanone]", "values": [{"measurement": "chromatographic logP", "setting": "[5]; compounds of formula (V)", "value": 2.98}]}
{"smiles": "CSc1ccc(Oc2ccc(C(C)=O)c(C(F)(F)F)n2)cc1", "note": "[Compound V-02, 1-[6-(4-methylsulfanylphenoxy)-2-(trifluoromethyl)-3-pyridyl]ethanone]", "values": [{"measurement": "chromatographic logP", "setting": "[5]; compounds of formula (V)", "value": 3.7}]}
{"smiles": "O=Cc1ccc(Oc2ccc(C(=O)Cn3cncn3)c(C(F)(F)F)n2)cc1", "note": "[VII-01, 4-[[5-[2-(1,2,4-triazol-1-yl)acetyl]-6-(trifluoromethyl)-2-pyridyl]oxy]benzaldehyde]", "values": [{"measurement": "chromatographic logP", "setting": "[5]; compounds of formula (VII)", "value": 2.12}]}
{"smiles": "CSc1ccc(Oc2ccc(C(=O)Cn3cncn3)c(C(F)(F)F)n2)cc1", "note": "[VII-02, 1-[6-(4-methylsulfanylphenoxy)-2-(trifluoromethyl)-3-pyridyl]-2-(1,2,4-triazol-1-yl)ethanone]", "values": [{"measurement": "chromatographic logP", "setting": "[5]; compounds of formula (VII)", "value": 2.92}]}
{"smiles": "C#Cc1ccc(Oc2ccc(C(=O)Cn3cncn3)c(C(F)(F)F)n2)cc1", "note": "[VII-04, 1-[6-(4-ethynylphenoxy)-2-(trifluoromethyl)-3-pyridyl]-2-(1,2,4-triazol-1-yl)ethanone]", "values": [{"measurement": "chromatographic logP", "setting": "[5]; compounds of formula (VII)", "value": 2.63}]}
